One data set concerns the target T1, CRBN (Homo sapiens, UniProt Q96SW2).
T1 construct: western blot analysis of the levels of CRBN and VHL E3 ligase in cell lysate; endogenous in cells; host or cells: HEK293 (ATCC)
Kind of data set: E3 ligase homo-degradation by western blot, CRBN. Type of data set: cell-based. The note with it: HEK293 cells, 4 h, 0.1, 1 and 10 μM. An excerpt:
(§1) 4. Biological experiments
(§2) Primary antibodies used for western blotting included anti-human BRD2(1:2000, rabbit monoclonal, Abcam, ab139690), anti-human BRD3 (1:1000, rabbit monoclonal, Abcam, ab264420), anti-human BRD4 (E2A7X) (1:1000, rabbit monoclonal, Cell Signaling Technology, #13440), anti-human VHL (1:1000, rabbit polyclonal, Cell Signaling Technology, #68547), anti-human CRBN (D8H3S) (1:1000, rabbit polyclonal, Cell Signaling Technology, #71810), anti-human alpha Tubulin, clone B-5-1-2 (1:5000, mouse monoclonal, Merck Life Science, # 32-2500).Secondary antibodies used for western blot included: anti-mouse horseradish peroxidase-linked antibody (1:3000, sheep, GE Healthcare Life Sciences, #NA931V), and anti-rabbit horseradish peroxidase-linked antibody (1:8000, donkey, GE Healthcare Life Sciences, #NA934V). Reagent for degradation assay and compounds […]
dr. Serge Van Calenbergh, Ghent University).
4.2 Cell lines and culture
HEK293, A549, SKOV-3, HCT116 cells (ATCC)were grown in DMEM (Gibco),and all cells were supplemented with 10% (v/v) fetal bovine serum (FBS) (Sigma), […] penicillin/streptomycin solution (Thermo Fisher Scientific) and maintained at 37 °C and 5% CO2 in a humidified atmosphere. All cells used were tested monthly using the Mycoalert Mycoplasma Detection Kit (cat. no. LT07-318, Lonza) to exclude mycoplasma contamination.
4.3 Degradation assays by Western blot
General method of Western blot: Lysates were sonicated and centrifuged at 4 °C at 20000 g for 15 min, and the supernatants were transferred to new tubes. Protein concentration of cell lysates was measured using the DC Protein Assay kit (BIO-RAD) following manufacturer's instructions. Cell lysates were mixed with reducing sample buffer (0.5 M Tris-HCl (pH 6.8), 43% glycerol, 9.2% SDS, 5% 2-mercaptoethanol, 5% bromophenol blue) and boiled for 5 min at 95°C. […]
(§3) Figure S5 Homo-degradation effect in Dual-ligand PROTACs. […] Subsequently, cell lysates were prepared and the protein levels of CRBN or VHL E3 ligase were assessed by Western blotting. […]

The next data set deals with T2, VHL (Homo sapiens, UniProt P40337).
T2 construct: western blot analysis of the levels of CRBN and VHL E3 ligase in cell lysate; endogenous in cells; host or cells: HEK293 (ATCC)
T2 sequence (P40337 whole entry): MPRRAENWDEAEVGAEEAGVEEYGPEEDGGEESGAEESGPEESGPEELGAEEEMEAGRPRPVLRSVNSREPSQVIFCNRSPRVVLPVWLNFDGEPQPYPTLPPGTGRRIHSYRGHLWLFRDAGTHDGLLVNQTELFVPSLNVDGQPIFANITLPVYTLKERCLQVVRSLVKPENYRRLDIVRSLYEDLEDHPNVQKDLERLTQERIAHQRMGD
Kind of data set: E3 ligase homo-degradation by western blot, VHL. The note with it: HEK293 cells, 4 h, 1 μM and 10 μM. Type of data set: cell-based.
From the text: as §1, §2
dr. Serge Van Calenbergh, Ghent University). […]
General method of Western blot: Lysates were sonicated and centrifuged at 4 °C at 20000 g for 15 min, and the supernatants were transferred to new tubes. Protein concentration of cell lysates was measured using the DC Protein Assay kit (BIO-RAD) following manufacturer's instructions. […]
as §3

A further data set concerns the target T3, BRD4 (Homo sapiens, UniProt O60885).
T3 construct: BRD2, BRD3 and BRD4 protein levels were measured by western blot; endogenous in cells; host or cells: HEK293 (ATCC)
Description: Western blot degradation of BRD4 in HEK293 cells. Type of data set: cell-based. The note with it: HEK293 cells, 4 h, 0.1 μM to 1 nM, Fig. S2.

In data set [1] the test system is HEK293, A549, HCT116 and SKOV-3. Kind of data set: CellTiter-Glo metabolic activity, cell line panel. Type of data set: cell-based. The note with it: 48 h. How it is done: (§4) 4.4 Cell viability assay on 2D cells cultures
(§5) HEK293, HCT116, A549,andSKOV-3 cells were seeded in 96-well tissue culture plates at a density of 2000-3000 cells per well in 100 µl of growth medium and incubated overnight at 37 °C with 5% CO2. The following day, the cells were treated with various concentrations of compounds or 0.05% DMSO for 48 h. After treatment, add 100 μl of Cell Titer-Glo® 2.0 Reagent (cat. no. G9243, Promega) in each well, then the 96-well plates were put on an orbital shaker for 10 min and then allow the plate to incubate at room temperature for 10-20min to stabilize the luminescent signal. Luminescence readout (Gen5 Data Analysis Software v3.08.01) was performed to record luminescence.
(§6) (1 picture or pasted object on this page, not shown here)
A general note: ATP-based viability assays read luminescence as a measure of living cells.

A further data set has as its system HCT116 cells. Kind of data set: CellTiter-Glo 2D metabolic activity assay, HCT116. The note with it: Homo sapiens, HCT-116, 2D culture, 48 h. The format is cell-based. The procedure:
as §4, §5, §6

The next data set relates to A549 spheroids. Kind of data set: CellTiter-Glo 3D assay on spheroids. The format is cell-based. The note with it: Homo sapiens, 72 h, read-out: EC50, spheroid metabolic activity. The procedure:
4.5 Cell viability assay on 3D cell cultures
The single cell suspension containing 2.5 ×10^4 cells/ml of A549 or 2 ×10^4 cells/ml of HCT116 were seeded into the U-shaped, 384-well ULA plates (cat. no. MS-9384UZ, S-bio), each well containing 80 μl single cell suspension. The 384-well ULA plates were sealed with Breath-Easy semipermeable tape (cat. no. BEM-1, Diversified Biotech) to prevent evaporation. The spheroids were put into incubator and then cultured at 37 °C and 10% CO2. After 48h of spheroids formation, the spheroids were treated with various concentrations of compounds or 0.05% DMSO. After 72h treatment, each spheroid in the culture medium was pipetted into white micro-96-well plates (cat. no. 236108, ThermoFisher) and an equal volume of Cell Titer-Glo 3D (cat. no. G9683, Promega) reagent was added. Luminescence readouts were the same as described above for 2D culture.

The nature of data set [2]: Parallel artificial membrane permeability assay (PAMPA). Type of data set: in vitro ADME. The note with it: 10 uM, pH 7.4, four hours. How it is done:
4.9 Study of membrane permeability of single-ligand and dual-ligand PROTACs Parallel artificial membrane permeability assay (PAMPA) is a non-cell based assay designed to predict passive, transcellular permeability of a test compound through a PVDF membrane filter pretreated with lipid. At a given pH a log Pe (log of effective permeability) can be determined by a UV spectrophotometer. […]
is carried out in the company of Eurofins Panlabs, 6 Research Park Dr. St. Charles, MO 63304, U.S.A. The results are attached as an excel file.
Sample preparation The test compound is prepared from a 10 mM DMSO stock solution and diluted to a single final concentration of 10 uM in donor buffer. The donor solution is placed in contact with the acceptor buffer at a single pH = 7.4 with the membrane in between and the sandwich is incubated for four hours at ambient temperature.
Reference compounds Ketoprofen, propranolol and furosemide. The reference compounds yield log Pe (10-6 cm/s) values that cover the typical range of the assay from high (Propranolol), mid (Ketoprofen) to low (Furosemide) permeability.
Analytical method UV/Vis spectrophotometer
The UV absorption is measured from 250 to 500 nm for both donor and acceptor plate.
Adjustments to the method may be made as necessary to improve detection or UV spectrum.
Data analysis The amount of compound UV absorbance is determined in the donor plate prior to starting the experiment for each compound. The UV absorbance was measured from the (1 picture or pasted object on this page, not shown here) […]
donor and acceptor plate after a four hour incubation time. The log Pe was calculated using […]
4.10 Statistical Analysis.
Data analyses were performed using GraphPad Prism 9 software. The results are presented as the mean ± standard deviation (SD) or standard error of mean (SEM). All statistical analyses were evaluated with one-way analysis of variance (ANOVAs), or unpaired Student’s t-test. The difference was considered statistically significant when P < 0.05.

In another data set the test system is A549 cells. Description: CellTiter-Glo 2D metabolic activity assay, A549. The format is cell-based. The note with it: Homo sapiens, 2D culture, 48 h. How it is done:
as §4, §5, §6

For the next data set, the system named is HEK293 cells. Description: CellTiter-Glo 2D metabolic activity assay, HEK293. Type of data set: cell-based. The note with it: Homo sapiens, 2D culture, 48 h. The procedure:
Figure S5 Homo-degradation effect in Dual-ligand PROTACs. HEK293 cells were treated with all synthesized PROTACs or 2V-alkyne/2P-alkyne for 4 hours. Subsequently, cell lysates were prepared and the protein levels of CRBN or VHL E3 ligase were assessed by Western blotting. (A) Representative image of CRBN or VHL E3 ligase homo-degradation was screened for all PROTACs and commercial single-ligand PROTACs at a concentration of 0.1, 1 and 10 µM, respectively (equivalent volume of DMSO as control group). (B) Representative image of CRBN or VHL E3 ligase homo-degradation was screened for 2P-alkyne or 2V-alkyne at a concentration of 0.1, 1 and 10 µM, respectively (equivalent volume of DMSO as control group). Experiments were performed as three independent replicates.
as §4
HEK293, HCT116, A549,andSKOV-3 cells were seeded in 96-well tissue culture plates at a density of 2000-3000 cells per well in 100 µl of growth medium and incubated overnight at 37 °C with 5% CO2. The following day, the cells were treated with various concentrations of compounds or 0.05% DMSO for 48 h. […] Luminescence readout (Gen5 Data Analysis Software v3.08.01) was performed to record luminescence. […]

The structures appear in SMILES notation.

These results are taken from PMC11462456 (Chemical Science, 2024).

A word on the EC50: it is the concentration that produces a half-maximal response.

T1 sequence (Q96SW2 whole entry): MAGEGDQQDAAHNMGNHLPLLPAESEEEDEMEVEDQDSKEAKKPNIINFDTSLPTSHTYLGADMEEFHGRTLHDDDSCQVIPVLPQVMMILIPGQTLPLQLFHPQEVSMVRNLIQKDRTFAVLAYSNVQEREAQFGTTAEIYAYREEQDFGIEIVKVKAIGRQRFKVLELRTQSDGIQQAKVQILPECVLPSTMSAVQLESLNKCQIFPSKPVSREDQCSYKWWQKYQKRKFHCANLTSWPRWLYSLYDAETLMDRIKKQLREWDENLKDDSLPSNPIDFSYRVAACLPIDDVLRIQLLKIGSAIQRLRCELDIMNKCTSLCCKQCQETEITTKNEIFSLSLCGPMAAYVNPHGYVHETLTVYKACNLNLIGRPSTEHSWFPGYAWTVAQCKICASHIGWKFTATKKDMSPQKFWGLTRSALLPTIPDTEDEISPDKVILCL
Description for BRD4: HEK293, A549, SKOV-3, HCT116 cells (ATCC)were grown in DMEM (Gibco),and all cells were supplemented with 10% (v/v) fetal bovine serum (FBS) (Sigma), 100 mg/mL penicillin/streptomycin solution (Thermo Fisher Scientific) and maintained at 37 °C and 5% CO2 in a humidified atmosphere. All cells used were tested monthly using the Mycoalert
at 95°C. Proteins were separated by SDS–PAGE (SDS polyacrylamide gel electrophoresis) with 25–40 µg of total protein per well, transferred to 0.2-μm-pore nitrocellulose membranes (BIO-RAD), then blocked in 5%(w/v) milk in PBS and 0.5% Tween-20, and incubated overnight at 4°C with primary antibodies described in section 4.1. Secondary antibodies were added for 1h at room temperature after 3 times washing with blocking buffer. After 6 times of washing
with PBS (Thermo Fisher Scientific) and 0.5% Tween-20, Blots were detected using the Clarity Western ECL Substrate (BIO-RAD) and visualized on iBright CL 750 (Thermo Fisher Scientific) and images were analyzed using iBright Firmware 1.7.0.
4.3.1 Evaluation of the degradation capacity of PROTACs […]

`Cc1sc2c(c1C)C(c1ccc(Cl)cc1)=N[C@@H](CC(=O)NCCOCCOCCOCCn1cc(CCC(=O)N[C@@H](CC(=O)NCCOCCOCCNc3cccc4c3C(=O)N(C3CCC(=O)NC3=O)C4=O)C(=O)NCCOCCOCCNc3cccc4c3C(=O)N(C3CCC(=O)NC3=O)C4=O)nn1)c1nnc(C)n1-2` (stereo partly drawn) [1J2P]: the “CRBN level (homo-degradation)” value on CRBN is on record as “did not induce any significant decrease of CRBN”.

With `Cc1ncsc1-c1ccc(C(C)NC(=O)C2CC(O)CN2C(=O)C(NC(=O)COCCOCCNC(=O)CC(NC(=O)CCc2cn(CCOCCOCCOCCNC(=O)CC3N=C(c4ccc(Cl)cc4)c4c(sc(C)c4C)-n4c(C)nnc43)nn2)C(=O)NCCOCCOCC(=O)NC(C(=O)N2CC(O)CC2C(=O)NC(C)c2ccc(-c3scnc3C)cc2)C(C)(C)C)C(C)(C)C)cc1` (stereo not drawn) [1J2V], the VHL homo-degradation result on VHL is reported as “did induce homo-degradation of VHL”.

Take `Cc1sc2c(c1C)C(c1ccc(Cl)cc1)=N[C@@H](CC(=O)NCCOCCOCCNC(=O)C[C@H](NC(=O)COCCOCCOCCOCCn1cc(CNc3cccc4c3C(=O)N(C3CCC(=O)NC3=O)C4=O)nn1)C(=O)NCCOCCOCCNC(=O)C[C@@H]1N=C(c3ccc(Cl)cc3)c3c(sc(C)c3C)-n3c(C)nnc31)c1nnc(C)n1-2` (stereo partly drawn) [2J1P]: the “protein degradation potency, controls with similar linker length” value at BRD4 is listed as “could still potently degrade the BRD proteins”. In addition, the “metabolic inhibition, comparison” value in data set [1] is listed as “higher metabolic inhibition compared to single-ligand PROTACs”.

`Cc1ncsc1-c1ccc(C(C)NC(=O)C2CC(O)CN2C(=O)C(NC(=O)CCc2cn(CCOCCOCCOCCOCC(=O)NC(CC(=O)NCCOCCOCCNC(=O)CC3N=C(c4ccc(Cl)cc4)c4c(sc(C)c4C)-n4c(C)nnc43)C(=O)NCCOCCOCCNC(=O)CC3N=C(c4ccc(Cl)cc4)c4c(sc(C)c4C)-n4c(C)nnc43)nn2)C(C)(C)C)cc1` (stereo not drawn) [2J1V]: on BRD4, the “protein degradation potency, controls with similar linker length” value is on record as “could still potently degrade the BRD proteins”. Also, in [1], the “metabolic inhibition, comparison” value was “higher metabolic inhibition compared to single-ligand PROTACs”.

Consider `C#CCCC(=O)N[C@@H](CC(=O)NCCOCCOCCNc1cccc2c1C(=O)N(C1CCC(=O)NC1=O)C2=O)C(=O)NCCOCCOCCNc1cccc2c1C(=O)N(C1CCC(=O)NC1=O)C2=O` (stereo partly drawn) [2P-alkyne], for which the “CRBN level (homo-degradation)” value at CRBN was “did not induce any degradation of CRBN”.

Regarding `Cc1sc2c(c1C)C(c1ccc(Cl)cc1)=NC(CC(=O)NCCCCNC(=O)COc1cccc3c1C(=O)N(C1CCC(=O)NC1=O)C3=O)c1nnc(C)n1-2` (stereo not drawn) [dBET1], the half-maximal effective concentration (EC50) in the data set with HCT116 cells was > 10000 nM; in the data set with A549 spheroids, 7000 nM; in the data set on A549 cells it was 2000 nM; in the data set on HEK293 cells, 900 nM. In [2], the membrane permeability result is “very limited membrane permeability”.
